Assay results taken from PMC10747602, “Dose Response, Dosimetric, and Metabolic Evaluations of Replacement PFAS Perfluoro-(2,5,8-trimethyl-3,6,9-trioxadodecanoic) Acid (HFPO-TeA)” (Toxics, 2023).

Assay: Non-targeted analysis of plasma and liver (in vivo)
Parameters: species or system Sprague Dawley rats
Conditions: for relative peak area abundance (RA) vs. HFPO-TeA, Plasma: 5 days, mean ± SD n=8
Procedure: Extracts of plasma (50 µL), liver (10 mg), and hepatocyte metabolism assay media (10 µL) were analyzed by high-resolution, accurate mass non-targeted analysis (NTA) for the detection and identification of potential biotransformation products of HFPO-TeA. A mixture of ^13C-labeled PFAS compounds (MPAC-C-ES, Wellington Laboratories, Guelph, ON, Canada) were used as tracers. Samples were extracted, as detailed above (in vivo) and below (in vitro), and then analyzed in triplicate in a randomized order on a Sciex X500R QTOF. Additional information on NTA instrumental analysis and data processing parameters is presented in Supplementary Text S8 and Tables S8 and S10 [52]. […] A screening list of potential biotransformation products was generated using the U.S. EPA web application CTS: Chemical Transformation Simulator 1.0 and Biotransformer 3.0 [53, 54]. In some instances, molecular structure predictions were performed using MetFrag. […]
tube, and then further crashed with 200 µL ACN. This was repeated twice more to generate a final combined supernatant volume of 600 µL. Supernatants were stored at -20 °C prior to analysis.
Samples were quantitated against matrix-matched calibration curves containing a minimum of 5 points spanning the range 0.99 – 141 ng/mg liver (wet weight, ww). For the calibration standards, commercial rat liver (BioIVT) was spiked with HFPO-TeA and PFHxDA, homogenized, and extracted using the above procedure. […]
Support ing Text S8: Non- Target ed Analysis Met hod and Data Processing Each sample batch included a mobile phase blank and solvent blank to monitor for the presence of laboratory contamination, and a system suitability sample consisting of the set of isotopically labeled PFAS tracer compounds spiked into extraction solvent to monitor instrument performance prior to sample analysis. […] A high-resolution, exact mass spectral library created in house from IDA scans of commercially available PFAS standards analyzed on the same mass spectrometer as the samples and using the same instrument parameters was used for library searches. […]

Compound	presence of predicted conjugates (non-targeted analysis) (plasma or liver)	relative peak area abundance (RA) vs. HFPO-TeA, Plasma (HFPO-TeA dose 6.3 mg/kg/day)	relative peak area abundance (RA) vs. HFPO-TeA, Plasma (HFPO-TeA dose 17 mg/kg/day)
O=C(O)C(F)(OC(F)(F)C(F)(OC(F)(F)C(F)(OC(F)(F)C(F)(F)C(F)(F)F)C(F)(F)F)C(F)(F)F)C(F)(F)F (stereo not drawn) [HFPO-TeA, perfluoro-(2,5,8-trimethyl-3,6,9-trioxadodecanoic) acid]	No ions that suggested the presence of the three predicted HFPO-TeA conjugates were observed		
O=C(O)C(F)(OC(F)(F)C(F)(OC(F)(F)C(F)(F)C(F)(F)F)C(F)(F)F)C(F)(F)F (stereo not drawn) [HFPO-TA, perfluoro-(2,5-dimethyl-3,6-dioxanonanoic) acid]		0.05 ± 0.04	1.83 ± 0.85
